Reference: the supplement of paper PMC10307832

What was measured:
Test in all cases: relative viability (nuclei count vs DMSO), 5 days (fraction); higher = more cells survive
Pemetrexed + Luminespib = compound: Nc1nc2[nH]cc(CCc3ccc(C(=O)N[C@@H](CCC(=O)O)C(=O)O)cc3)c2c(=O)[nH]1 [Pemetrexed] + CCNC(=O)c1noc(-c2cc(C(C)C)c(O)cc2O)c1-c1ccc(CN2CCOCC2)cc1 [Luminespib] (partner 0.01 µM)
Outline: (§1)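 For relative viability, nuclei counts in treated wells were divided by those in vehicle wells. Lung cancer cell lines had been pin-tool dosed in 1536-well plates the day after seeding and cultured for 5 days, then fixed and stained in one step (final 0.05% Triton X-100, 1% formaldehyde, 1 ug/ml Hoechst) and imaged at 4×. Doses were one drug alone or a fixed anchor-drug dose plus five library-drug doses (not always all listed) in √10 steps, and values are duplicate-plate medians.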

Idelalisib + Vorinostat = compound: CC[C@H](Nc1ncnc2[nH]cnc12)c1nc2cccc(F)c2c(=O)n1-c1ccccc1 [Idelalisib] + O=C(CCCCCCC(=O)Nc1ccccc1)NO [Vorinostat] (partner 1 µM)
Outline: as §1

Idelalisib + OSI-027 = compound: CC[C@H](Nc1ncnc2[nH]cnc12)c1nc2cccc(F)c2c(=O)n1-c1ccccc1 [Idelalisib] + COc1cccc2cc(-c3nc([C@H]4CC[C@H](C(=O)O)CC4)n4ncnc(N)c34)[nH]c12 [OSI-027] (partner 0.5 µM)
Outline: as §1

Pemetrexed + Olaparib = compound: Nc1nc2[nH]cc(CCc3ccc(C(=O)N[C@@H](CCC(=O)O)C(=O)O)cc3)c2c(=O)[nH]1 [Pemetrexed] + O=C(c1cc(Cc2n[nH]c(=O)c3ccccc23)ccc1F)N1CCN(C(=O)C2CC2)CC1 [Olaparib] (partner 8 µM)
Outline: as §1

Cell Line | relative viability (Pemetrexed + Luminespib; first compound 0.002 µM) | relative viability (Pemetrexed + Luminespib; first compound 0.006325 µM) | relative viability (Pemetrexed + Luminespib; first compound 0.02 µM) | relative viability (Pemetrexed + Luminespib; first compound 0.06325 µM) | relative viability (Pemetrexed + Luminespib; first compound 0.2 µM) | relative viability (Idelalisib + Vorinostat; first compound 0.04 µM) | relative viability (Idelalisib + Vorinostat; first compound 0.1265 µM) | relative viability (Idelalisib + Vorinostat; first compound 0.4 µM) | relative viability (Idelalisib + Vorinostat; first compound 1.265 µM) | relative viability (Idelalisib + Vorinostat; first compound 4 µM) | relative viability (Idelalisib + OSI-027; first compound 0.04 µM) | relative viability (Idelalisib + OSI-027; first compound 0.1265 µM) | relative viability (Idelalisib + OSI-027; first compound 0.4 µM) | relative viability (Idelalisib + OSI-027; first compound 1.265 µM) | relative viability (Idelalisib + OSI-027; first compound 4 µM) | relative viability (Pemetrexed + Olaparib; first compound 0.002 µM) | relative viability (Pemetrexed + Olaparib; first compound 0.006325 µM) | relative viability (Pemetrexed + Olaparib; first compound 0.02 µM) | relative viability (Pemetrexed + Olaparib; first compound 0.06325 µM) | relative viability (Pemetrexed + Olaparib; first compound 0.2 µM)
EPLC-272H | 0.265 | 0.153 | 0.27 | 0.321 | 0.536 | 0.422 | 0.405 | 0.431 | 0.292 | 0.452 | 0.304 | 0.296 | 0.271 | 0.294 | 0.274 | 0.592 | 0.835 | 1.01 | 0.564 | 0.271
SW 900 | 0.198 | 0.147 | 0.18 | 0.181 | 0.158 | 0.442 | 0.548 | 0.407 | 0.514 | 0.441 | 0.553 | 0.642 | 0.376 | 0.744 | 0.373 | 0.871 | 0.797 | 1.07 | 0.621 | 0.494
SK-LU-1 | 0.195 | 0.2 | 0.187 | 0.2 | 0.21 | 0.739 | 0.735 | 0.645 | 0.813 | 0.768 | 0.383 | 0.39 | 0.27 | 0.369 | 0.272 | 0.405 | 0.5 | 0.58 | 0.51 | 0.455
NCI-H322M | 0.987 | 0.767 | 0.853 | 0.84 | 0.752 | 1.03 | 0.993 | 0.799 | 0.899 | 0.911 | 0.612 | 0.546 | 0.463 | 0.539 | 0.511 | 0.682 | 0.763 | 0.752 | 0.84 | 0.736
NCI-H2405 | 0.703 | 0.775 | 0.77 | 0.818 | 0.789 | 1.2 | 1.05 | 0.908 | 1.04 | 1.06 | 0.675 | 0.648 | 0.433 | 0.612 | 0.516 | 0.793 | 0.821 | 0.885 | 0.846 | 0.862
NCI-H1666 | 1 | 0.942 | 1.01 | 1.01 | 0.839 | 1.01 | 1.02 | 0.962 | 1.05 | 1.08 | 0.889 | 0.895 | 0.782 | 0.83 | 0.759 | 0.765 | 0.785 | 0.787 | 0.728 | 0.694
NCI-H358 | 0.268 | 0.368 | 0.227 | 0.367 | 0.146 | 0.643 | 0.63 | 0.588 | 0.567 | 0.593 | 0.773 | 0.875 | 0.554 | 0.695 | 0.72 | 0.582 | 0.622 | 0.66 | 0.397 | 0.151
H3255 | 0.714 | 0.799 | 0.93 | 0.852 | 0.844 | 0.978 | 0.853 | 0.796 | 0.91 | 0.736 | 0.721 | 0.566 | 0.558 | 0.517 | 0.534 | 0.563 | 0.602 | 0.586 | 0.573 | 0.519
LCLC-103H | 0.963 | 0.942 | 1.02 | 0.796 | 0.94 | 0.864 | 0.926 | 0.664 | 0.798 | 0.58 | 0.545 | 0.497 | 0.368 | 0.459 | 0.424 | 0.732 | 0.707 | 0.791 | 0.78 | 0.679
NCI-H2347 | 0.0507 | 0.281 | 0.551 | 0.55 | 0.381 | 0.639 | 0.572 | 0.511 | 0.624 | 0.403 | 0.379 | 0.332 | 0.367 | 0.348 | 0.257 | 0.55 | 0.527 | 0.678 | 0.517 | 0.499
LK-2 | 0.179 | 0.181 | 0.187 | 0.165 | 0.208 | 0.307 | 0.295 | 0.173 | 0.338 | 0.221 | 0.219 | 0.223 | – | 0.198 | 0.183 | 0.761 | 0.817 | 0.745 | 0.519 | 0.622
NCI-H2342 | 0.678 | 0.8 | 0.676 | 0.799 | 0.788 | 0.801 | 0.736 | 0.689 | 0.664 | 0.736 | 0.587 | 0.613 | 0.582 | 0.641 | 0.618 | 0.409 | 0.407 | 0.467 | 0.452 | 0.424
HCC-15 | 0.454 | 0.391 | 0.475 | 0.406 | 0.23 | 0.764 | 0.865 | 0.888 | 0.889 | 0.69 | 0.702 | 0.754 | 0.509 | 0.869 | 0.668 | 0.644 | 0.724 | 0.804 | 0.601 | 0.353
SW 1573 | 0.285 | 0.443 | 0.249 | 0.125 | 0.176 | 0.907 | 0.629 | 0.7 | 0.556 | 0.49 | 0.625 | 0.656 | 0.518 | 0.492 | 0.531 | 0.477 | 0.45 | 0.472 | 0.423 | 0.43
NCI-H838 | 0.234 | 0.246 | 0.309 | 0.197 | 0.156 | 0.752 | 0.731 | 0.68 | 0.716 | 0.618 | 0.416 | 0.346 | 0.271 | 0.453 | 0.317 | 0.755 | 0.75 | 0.837 | 0.471 | 0.216
RERF-LC-KJ | 1.39 | 1.28 | 1.38 | 1.21 | 0.831 | 0.826 | 0.754 | 0.725 | 0.697 | 0.512 | 0.632 | 0.563 | 0.436 | 0.502 | 0.516 | 0.956 | 0.843 | 0.973 | 0.865 | 0.612
